31 compounds from ChEMBL document CHEMBL5321280, “Novel 4-Arylindolines Containing a Pyrido[3,2-d]pyrimidine Moiety as the Programmed Cell Death-1/Programmed Cell Death-Ligand 1 Interaction Inhibitors for Tumor Immunotherapy” (J Med Chem, 2023) can be followed below.

Activity calls are given as the source filed them. The calls are words filed in the database; no cut-off is given here.

In data set [1] the target is Programmed cell death protein 1/Programmed cell death 1 ligand 1 (Homo sapiens, UniProt Q15116+Q9NZQ7). In words: Inhibition of PD-1/PD-L1 (unknown origin) protein-protein interaction incubated for 105 mins by HTRF assay. The format is protein-complex assay. For orientation: Time-resolved FRET reads energy transfer from a long-lived donor to a nearby acceptor.
Sequence of Programmed cell death protein 1/Programmed cell death 1 ligand 1 (Q15116 whole entry): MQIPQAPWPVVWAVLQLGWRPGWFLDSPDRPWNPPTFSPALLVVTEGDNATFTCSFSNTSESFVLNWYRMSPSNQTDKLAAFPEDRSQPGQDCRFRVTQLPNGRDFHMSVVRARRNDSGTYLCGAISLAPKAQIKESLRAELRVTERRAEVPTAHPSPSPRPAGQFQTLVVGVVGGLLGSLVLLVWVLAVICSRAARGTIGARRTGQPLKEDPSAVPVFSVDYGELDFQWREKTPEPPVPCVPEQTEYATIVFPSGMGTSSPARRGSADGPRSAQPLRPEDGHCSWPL
Sequence of Programmed cell death protein 1/Programmed cell death 1 ligand 1 (Q9NZQ7 whole entry): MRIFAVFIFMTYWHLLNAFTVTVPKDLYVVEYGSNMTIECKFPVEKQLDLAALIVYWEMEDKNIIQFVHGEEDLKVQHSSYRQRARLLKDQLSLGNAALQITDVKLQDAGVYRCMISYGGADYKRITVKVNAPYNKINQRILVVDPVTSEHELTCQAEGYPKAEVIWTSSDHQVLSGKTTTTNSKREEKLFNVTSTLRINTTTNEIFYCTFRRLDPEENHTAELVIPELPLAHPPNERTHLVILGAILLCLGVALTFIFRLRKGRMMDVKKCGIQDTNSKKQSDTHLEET
Data set [2] has as its system T-cell. Nature of the data set: Immunomodulatory activity in concanavalin A stimulated BALB/c mouse T-lymphocyte co-cultured with mouse CT26 cells overexpressing PD-L1 assessed as increase in T cell proliferation at 5 to 80 nM incubated for 48 hrs by flow cytometry. To be noted: dose 5-80 nM. The format is functional, cell-based. For orientation: A flow cytometer gives signals particle by particle.

Data set [3] deals with T-cell. Nature of the data set: Immunomodulatory activity in concanavalin A stimulated BALB/c mouse T-lymphocyte co-cultured with mouse CT26 cells assessed as increase in T cell proliferation at 5 to 80 nM incubated for 48 hrs by flow cytometry. The format is functional, cell-based. Particulars: dose 5-80 nM.
Data set [4] deals with T-cell. In words: Immunomodulatory activity in concanavalin A stimulated BALB/c mouse T-lymphocyte co-cultured with mouse CT26 cells assessed as T cell proliferation at 20 nM incubated for 48 hrs by flow cytometry (reference value: 64.08 +/- 0.91%). The format is functional.
In data set [5] the test system is T-cell. Nature of the data set: Immunomodulatory activity in concanavalin A stimulated BALB/c mouse T-lymphocyte co-cultured with mouse CT26 cells overexpressing PD-L1 assessed as T cell proliferation at 20 nM incubated for 48 hrs by flow cytometry (reference value: 58.47 +/- 2.07%). The format is functional.
Data set [6] in a line: Metabolic stability in human liver microsomes assessed as half life. The format is ADME, Microsome. (In general: Liver microsomes are a subcellular fraction often used to study metabolism.)
Data set [7] concerns T-cell. In words: Immunomodulatory activity in concanavalin A stimulated BALB/c mouse T-lymphocyte co-cultured with mouse CT26 cells overexpressing PD-L1 assessed as increase in proportion of CD3 positive CD69 positive T cells at 80 nM incubated for 48 hrs by flow cytometry (reference value: 41.22%). The format is functional.
Data set [8] deals with T-cell. In words: Immunomodulatory activity in concanavalin A stimulated BALB/c mouse T-lymphocyte co-cultured with mouse CT26 cells overexpressing PD-L1 assessed as increase in proportion of CD3 positive CD69 positive T cells at 20 nM incubated for 48 hrs by flow cytometry (reference value: 39.97%). The data set is classed as functional.
Data set [9] has as its system T-cell. Nature of the data set: Immunomodulatory activity in concanavalin A stimulated BALB/c mouse T-lymphocyte co-cultured with mouse CT26 cells overexpressing PD-L1 assessed as increase in proportion of CD3 positive CD8 positive T cells at 80 nM incubated for 48 hrs by flow cytometry (reference value: 14.38%). The data set is classed as functional.
Data set [10] has as its system T-cell. In words: Immunomodulatory activity in concanavalin A stimulated BALB/c mouse T-lymphocyte co-cultured with mouse CT26 cells overexpressing PD-L1 assessed as increase in proportion of CD3 positive CD8 positive T cells at 20 nM incubated for 48 hrs by flow cytometry (reference value: 15.01%). The format is functional.

`O=C(O)[C@H]1CCCN1Cc1cnc2c(N3CCc4c(-c5ccccc5)cccc43)ncnc2c1`: the IC50 in data set [1] worked out at 22.7 nM.
Same read-out and setting: as for `CC(=O)NCCNCc1cnc2c(N3CCc4c(-c5ccccc5)cccc43)nccc2c1`, the figure is 84.5 nM.
Still for that read-out and setting: as for `NS(=O)(=O)NCCNCc1cnc2c(N3CCc4c(-c5ccccc5)cccc43)ncnc2c1`, the figure is 21.1 nM; as for `OC[C@H]1CCN(Cc2cnc3c(N4CCc5c(-c6ccccc6)cccc54)ncnc3c2)C1`, 21.4 nM.
Turning to `O=C(O)[C@H]1CCN(Cc2cnc3c(N4CCc5c(-c6ccccc6)cccc54)ncnc3c2)C1`, the result in the data set with T-cell [2] and in the data set with T-cell [3] was Active. In [1], this compound had an IC50 of 8.1 nM. The Activity with T-cell [4] is 54.44%; in the data set with T-cell [5], 52.78%.
In [1], `c1ccc(-c2cccc3c2CCN3c2nccc3cc(CNC4CCOCC4)cnc23)cc1` came in with a 50% inhibitory concentration (IC50) of 128 nM.
Same read-out and setting: as for `O=C(O)[C@H]1CCN(Cc2cnc3c(N4CCc5c(-c6ccccc6)cccc54)nccc3c2)C1`, the figure is 80.5 nM; as for `COCCNCc1cnc2c(N3CCc4c(-c5ccc6c(c5)OCCO6)cccc43)ncnc2c1`, 15.5 nM.
As for `O=C(O)[C@@H]1CCCN1Cc1cnc2c(N3CCc4c(-c5ccccc5)cccc43)ncnc2c1`, the result in the data set on T-cell [2] and in the data set with T-cell [3] was Active. Further, 8.1 nM corresponded to half-maximal inhibition in data set [1] (IC50). In addition, the Activity came out at 64.03% in the data set on T-cell [4] and 61.9% in the data set with T-cell [5].
`OCCNCc1cnc2c(N3CCc4c(-c5ccccc5)cccc43)ncnc2c1`: the outcome in the data set on T-cell [2] and in the data set with T-cell [3] was Active. In [1], half-maximal inhibition (IC50) was put at 6.8 nM. For the same compound, the Activity turned out to be 59.22% in the data set with T-cell [4] and 60.06% with T-cell [5]. The half-life in data set [6] stood at 3.47 h.
Regarding `COCCNCc1cnc2c(N3CCc4c(-c5ccccc5)cccc43)ncnc2c1`, the midpoint of inhibition in [1], the IC50, lay at 23.4 nM.
Same read-out and setting: as for `O=C(O)[C@@H]1CCN(Cc2cnc3c(N4CCc5c(-c6ccccc6)cccc54)nccc3c2)C1`, the figure is 67.9 nM.
As to `c1ccc(-c2cccc3c2CCN3c2ncnc3cc(CNC4CCOCC4)cnc23)cc1`, in data set [1], the concentration for half-maximal inhibition (IC50) amounted to 21.2 nM. Moreover, the half-life in data set [6] came to 1.51 h.
For `CC(=O)NCCNCc1cnc2c(N3CCc4c(-c5ccccc5)cccc43)ncnc2c1`, the result in the data set with T-cell [2] and in the data set with T-cell [3] was Active. In addition, the Activity in the data set with T-cell [7] is given as 45.07%; in the data set with T-cell [4], 51.57%; in the data set on T-cell [5], 55.7%; in the data set with T-cell [8] it was 43.99%; with T-cell [9] it was 22.16%; in the data set on T-cell [10], 18.56%. Further, half-maximal inhibition in data set [1] (IC50) was put at 3.9 nM. Moreover, the half-life in data set [6] was 1.85 h.
With `CC(C)(CO)NCc1cnc2c(N3CCc4c(-c5ccccc5)cccc43)nccc2c1`, in data set [1], the midpoint of inhibition, the IC50, lay at 44.4 nM.
In data set [1], `OC[C@@H]1CCN(Cc2cnc3c(N4CCc5c(-c6ccccc6)cccc54)ncnc3c2)C1` had a 50% inhibitory concentration (IC50) of 16 nM.
The same measure, in the same setting: as for `O[C@H]1CCN(Cc2cnc3c(N4CCc5c(-c6ccccc6)cccc54)ncnc3c2)C1`, the figure is 17.4 nM; as for `NS(=O)(=O)NCCNCc1cnc2c(N3CCc4c(-c5ccc6c(c5)OCCO6)cccc43)ncnc2c1`, 31.5 nM.
On the same count and under the same terms, the same measure for `O=C(O)[C@@H]1CCCCN1Cc1cnc2c(N3CCc4c(-c5ccccc5)cccc43)ncnc2c1`: 26.6 nM.
Take `O=C(c1ncc(CNC2CCOCC2)s1)N1CCc2c(-c3ccc4c(c3)OCCO4)cccc21`: the outcome with T-cell [2] and in the data set with T-cell [3] was Active. The compound also came in with an IC50 in [1] of 18.9 nM. For the same compound, the Activity amounted to 59.1% in the data set on T-cell [4] and 60.49% with T-cell [5]. Also, the half-life in data set [6] was found to be 0.373 h.
In data set [1], `CC(=O)NCCNCc1cnc2c(N3CCc4c(-c5ccc6c(c5)OCCO6)cccc43)ncnc2c1` returned a half-inhibitory concentration (IC50) of 13.8 nM.
Regarding `O=C(O)[C@@H]1CCN(Cc2cnc3c(N4CCc5c(-c6ccccc6)cccc54)ncnc3c2)C1`, the outcome in the data set with T-cell [2] and in the data set on T-cell [3] was Active. The compound also yielded an IC50 in data set [1] of 8.6 nM. Besides, the results for the Activity in the data set with T-cell [4] and with T-cell [5] were 43.98% and 38.74%, respectively.
In data set [1], `OCCNCc1ccc2c(N3CCc4c(-c5ccccc5)cccc43)ncnc2c1` gave an IC50 of 43.4 nM.
Turning to `OCCNCc1cnc2c(N3CCc4c(-c5ccccc5)cccc43)nccc2c1`, in data set [1], inhibition was half-maximal at 31.7 nM (IC50).
Same read-out and setting: the same measure for `O=C(O)[C@H]1CCCCN1Cc1cnc2c(N3CCc4c(-c5ccccc5)cccc43)ncnc2c1`: 62.1 nM; for `CC(=O)NCCNCc1ccc2c(N3CCc4c(-c5ccccc5)cccc43)ncnc2c1`: 126 nM; for `c1ccc(-c2cccc3c2CCN3c2ncnc3cc(CNC4CCOCC4)ccc23)cc1`: 108 nM.
In data set [1], `O=C(O)[C@@H]1CCCN1Cc1cnc2c(N3CCc4c(-c5ccc6c(c5)OCCO6)cccc43)ncnc2c1` had a half-maximal inhibitory concentration (IC50) of 15.8 nM. Against the preceding compound, the IC50 is about 6.8-fold lower.
In the case of `OCCNCc1cnc2c(N3CCc4c(-c5ccc6c(c5)OCCO6)cccc43)ncnc2c1`, the outcome with T-cell [2] and with T-cell [3] was Active. For the same compound, in [1], half-maximal inhibition (IC50) was put at 7.2 nM. For the same compound, the Activity was 61.77% in the data set with T-cell [4] and 59.54% with T-cell [5].
`CC(C)(CO)NCc1cnc2c(N3CCc4c(-c5ccc6c(c5)OCCO6)cccc43)ncnc2c1` showed a half-inhibitory concentration (IC50) in data set [1] of 14.1 nM. This counts as double-digit nanomolar.
On the same count and under the same terms, as for `O[C@@H]1CCN(Cc2cnc3c(N4CCc5c(-c6ccccc6)cccc54)ncnc3c2)C1`, the figure is 13.2 nM.

The term IC50 denotes the midpoint of a concentration-inhibition curve. A lower IC50 goes with greater potency. As usually defined, the half-life is the time in which the quantity being followed falls by half.
